Tests used:
[1] = compound: CO[C@H]1C[C@@H]2CC[C@@H](C)[C@@](O)(O2)C(=O)C(=O)N2CCCC[C@H]2C(=O)O[C@H]([C@H](C)C[C@@H]2CC[C@@H](OCCO)[C@H](OC)C2)CC(=O)[C@H](C)/C=C(\C)[C@@H](O)[C@@H](OC)C(=O)[C@H](C)C[C@H](C)/C=C/C=C/C=C/1C [Everolimus]
[2] = compound: C=CC(=O)Nc1ccc(C(=O)Nc2[nH]nc3c2CN(C(=O)N[C@H](CN(C)C)c2ccccc2)C3(C)C)cc1 [YKL-5-124]
[3] = compound: CC[C@@]1(O)C(=O)OCc2c1cc1n(c2=O)Cc2cc3c(CN(C)C)c(O)ccc3nc2-1 [Topotecan]
[4] = compound: COc1cc([C@@H]2c3cc4c(cc3[C@@H](O[C@@H]3O[C@@H]5CO[C@@H](C)O[C@H]5[C@H](O)[C@H]3O)[C@H]3COC(=O)[C@H]23)OCO4)cc(OC)c1O [Etoposide]
[5] = compound: N.N.Cl[Pt]Cl [Cisplatin]
[6] = compound: CC1=C(N=C(N=C1N)[C@H](CC(=O)N)NC[C@@H](C(=O)N)N)C(=O)N[C@@H]([C@H](C2=CN=CN2)OC3C(C(C(C(O3)CO)O)O)OC4C(C(C(C(O4)CO)O)OC(=O)N)O)C(=O)N[C@H](C)[C@H]([C@H](C)C(=O)N[C@@H]([C@@H](C)O)C(=O)NCCC5=NC(=CS5)C6=NC(=CS6)C(=O)NCCC[S+](C)C)O [Bleomycin]; details: main component drawn
[7] = compound: CC(=O)c1c(C)c2cnc(Nc3ccc(N4CCN(CCOCCOCCOCCNC(=O)COc5cccc6c5C(=O)N(C5CCC(=O)NC5=O)C6=O)CC4)cn3)nc2n(C2CCCC2)c1=O [BSJ-03-123]; experiment: GR value, 72 h; higher = faster growth (1 = untreated, <0 = killing);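 note: breast cancer and non-malignant breast epithelial lines, nine half-log doses, viable cells counted by Hoechst and LIVE/DEAD dye imaging versus time-zero plates and DMSO controls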
[8] = compound: CCOc1cc2ncc(C#N)c(Nc3ccc(OCc4ccccn4)c(Cl)c3)c2cc1NC(=O)/C=C/CN(C)C [Neratinib/HKI272]; experiment: as above
[9] = compound: COc1cccc(OCCCN)c1-c1cc(Nc2cnc(C#N)cn2)n[nH]1
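Throughout, for GR50, 72 h: breast cancer and non-malignant breast epithelial cell lines, Deep Dye Drop or Dye Drop imaging, nine half-log doses, GR normalized to time-zero plates and DMSO-only controls.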

Cell Line | GR50, 72 h [1] | GR50, 72 h [2] | GR50, 72 h [3] | GR50, 72 h [4] | GR50, 72 h [5] | GR50, 72 h [6] | GR value ([7]; 0.001 µM) | GR value ([7]; 0.003162 µM) | GR value ([7]; 0.01 µM) | GR value ([7]; 0.03162 µM) | GR value ([7]; 0.1 µM) | GR value ([7]; 0.3162 µM) | GR value ([7]; 1 µM) | GR value ([7]; 3.162 µM) | GR value ([7]; 10 µM) | GR value ([8]; 0.0003162 µM) | GR value ([8]; 0.001 µM) | GR value ([8]; 0.003162 µM) | GR value ([8]; 0.01 µM) | GR value ([8]; 0.03162 µM) | GR value ([8]; 0.1 µM) | GR value ([8]; 0.3162 µM) | GR value ([8]; 1 µM) | GR value ([8]; 3.162 µM) | GR50, 72 h [9]
MCF10A | > 10 µM | < 0.001 µM | 0.00987 µM | 0.284 µM | 4.29 µM | 0.177 µM | 0.915 GR | 0.877 GR | 0.81 GR | 0.76 GR | 0.736 GR | 0.708 GR | 0.577 GR | 0.502 GR | -0.113 GR | 1 GR | 1 GR | 1 GR | 0.976 GR | 0.723 GR | 0.496 GR | 0.304 GR | 0.179 GR | 0.099 GR | 
MDAMB157 | > 10 µM |  | 0.00595 µM | 0.112 µM | 5.24 µM | 1.29 µM |  |  |  |  |  |  |  |  |  | 1.03 GR | 0.981 GR | 1.04 GR | 1 GR | 0.921 GR | 0.842 GR | 0.708 GR | 0.445 GR | 0.151 GR | 
MDAMB175VII | < 0.001 µM |  |  |  |  |  | 0.829 GR | 0.79 GR | 0.713 GR | 0.688 GR | 0.734 GR | 0.573 GR | 0.378 GR | 0.262 GR | 0.0206 GR | 0.753 GR | 0.53 GR | 0.138 GR | -0.551 GR | -0.848 GR | -0.905 GR | -0.932 GR | -0.949 GR | -0.983 GR | 0.0266 µM
MDAMB330 | < 0.001 µM |  |  |  |  |  | 0.928 GR | 0.827 GR | 0.847 GR | 0.727 GR | 0.637 GR | 0.403 GR | 0.337 GR | 0.277 GR | -0.101 GR | 0.967 GR | 0.831 GR | 0.218 GR | -0.306 GR | -0.546 GR | -0.592 GR | -0.599 GR | -0.656 GR | -0.62 GR | 0.000237 µM
MDAMB415 |  | 0.00409 µM |  |  |  |  | 0.922 GR | 0.789 GR | 0.714 GR | 0.825 GR | 0.744 GR | 0.674 GR | 0.61 GR | 0.545 GR | 0.181 GR | 1.06 GR | 1.08 GR | 1.13 GR | 1.1 GR | 1.06 GR | 0.989 GR | 0.889 GR | 0.737 GR | 0.0984 GR | 
MGH312 | < 0.001 µM | 0.00434 µM |  |  |  |  | 1.11 GR | 1.25 GR | 1.02 GR | 1.22 GR | 1.12 GR | 0.909 GR | 0.827 GR | 0.933 GR | -0.91 GR | 0.953 GR | 1.02 GR | 0.997 GR | 0.787 GR | 0.606 GR | 0.489 GR | 0.502 GR | 0.238 GR | -0.252 GR | 
PDX1206 |  | 0.0811 µM |  |  |  |  | 1.02 GR | 0.915 GR | 0.885 GR | 0.967 GR | 0.904 GR | 0.912 GR | 0.782 GR | 0.726 GR | -0.109 GR |  |  |  |  |  |  |  |  |  | 0.00357 µM
SUM44PE | < 0.001 µM |  |  |  |  |  | 0.917 GR | 0.854 GR | 0.911 GR | 0.8 GR | 0.722 GR | 0.669 GR | 0.45 GR | 0.337 GR |  | 0.966 GR | 0.921 GR | 0.764 GR | 0.465 GR | 0.417 GR | 0.312 GR | 0.209 GR | 0.0292 GR | -0.218 GR | 0.000342 µM
SUM52PE | > 10 µM | 0.0453 µM |  |  |  |  | 1.02 GR | 0.851 GR | 0.868 GR | 0.883 GR | 0.862 GR | 0.78 GR | 0.657 GR | 0.634 GR | 0.228 GR | 1.01 GR | 0.991 GR | 1.01 GR | 1.06 GR | 1.01 GR | 1.01 GR | 0.959 GR | 0.876 GR | 0.503 GR | 0.00264 µM
SUM185PE | > 10 µM | 0.0819 µM |  |  |  |  | 0.901 GR | 0.946 GR | 0.906 GR | 0.922 GR | 0.819 GR | 0.776 GR | 0.799 GR | 0.758 GR | 0.649 GR | 0.996 GR | 1.05 GR | 0.979 GR | 0.808 GR | 0.839 GR | 0.681 GR | 0.595 GR | 0.476 GR | 0.267 GR | 
SUM190PT | 0.00331 µM | < 0.001 µM |  |  |  |  | 0.831 GR | 0.729 GR | 0.533 GR | 0.491 GR | 0.451 GR | 0.371 GR | 0.396 GR | 0.354 GR | -0.286 GR | 1.06 GR | 1.04 GR | 1.06 GR | 0.999 GR | 1.08 GR | 0.956 GR | 0.915 GR | 0.658 GR | 0.429 GR | 0.00042 µM
SUM229PE | > 10 µM | < 0.001 µM |  |  |  |  | 0.887 GR | 0.881 GR | 0.87 GR | 0.857 GR | 0.758 GR | 0.785 GR | 0.568 GR | 0.497 GR | 0.114 GR | 1.03 GR | 0.967 GR | 0.972 GR | 0.951 GR | 0.952 GR | 0.751 GR | 0.562 GR | 0.386 GR | 0.203 GR | 0.00707 µM
UACC893 |  | 0.00386 µM |  |  |  |  | 0.933 GR | 0.792 GR | 0.726 GR | 0.878 GR | 0.644 GR | 0.502 GR | 0.538 GR | 0.498 GR | 0.283 GR | 1.06 GR | 0.922 GR | 0.372 GR | -0.192 GR | -0.409 GR | -0.604 GR | -0.688 GR | -0.784 GR | -0.908 GR | 0.0579 µM
ZR7530 |  |  |  |  |  |  | 0.784 GR | 0.857 GR | 0.824 GR | 0.72 GR | 0.835 GR | 0.615 GR | 0.398 GR | 0.395 GR | -0.258 GR | 0.699 GR | 0.374 GR | 0.0338 GR | -0.0663 GR | -0.199 GR | -0.22 GR | -0.262 GR | -0.411 GR | -0.497 GR | 

From the supplement of paper PMC9663587
